These results are taken from patent publication EP2197879B1, “C7-SUBSTITUTED CAMPTOTHECIN ANALOGS” (priority 2007, dated 2009).

Like-named read-outs stand apart in the source and are kept apart here.

For data set [1], the system named is A2780/WT (wild-type) cells. The experiment in a line: Sulforhodamine B (SRB) cytotoxicity assay in A2780/WT cells. It is filed as cell-based. As to the method:
(§1) Each of the testing conditions used in this study in both A2780/WT (wild-type) and A2780/DX5 cells were repeated in five to fifteen experiments that were performed on separate days. Each experiment consisted of one microtiter plate with at least eight individual assays of a given drug treatment condition on the plate. The sulforhodamine B (SRB) assay was used to assess cytotoxicity and absorbance at 570 nm (A570) in order to calculate the percentage of cell control (or percent cell survival) for the various treatment conditions in the plate wells.
(§2) Roswell Park Memorial Institute (RPMI 1640) medium, fetal bovine serum (FBS), and L-glutamine were purchased from Gibco BRL. Drugs were dissolved in sterile dimethylsulfoxide (DMSO), from American Type Culture Collection (ATCC) for stock solutions (2.5 to 5.0 mM). Subsequent dilutions were made using cell culture medium (prior to adding the drug to cells). SRB was purchased from Sigma and dissolved in 1.0 percent acetic acid. Trichloroacetic acid was purchased from VWR International.
(§3) Cells were manipulated in a Class IIA/B3 Biological Safety Cabinet (Forma Scientific) and maintained at 37°C in a humidified atmosphere containing 5% CO2 in a water-jacketed cell culture incubator (Forma Scientific). Cells were counted using a Coulter-Z1 counter (Beckman-Coulter). Following drug treatment, plates were washed using a Biomek 2000 station (Beckman) and, following exposure to SRB dye, plates were washed using an automated plate washer (Model EL404, Bio-Tek Instruments). Percentage of control was correlated to A570 values and determined using a Model EL800 plate reader (Bio-Tek Instruments).
(§4) Population doubling times for the two cell lines used in this study encompassed a total of five cell doublings corresponding to approximately 5 days for A2780/WT and A2780/DX5 cells. A2780/WT and A2780/DX5 cells were cultured in RPMI 1640 medium supplemented with 10% fetal bovine serum and 1 mM of L-glutamine. Both cell lines were maintained as monolayered cultures in T-25 or T-75 flasks and then seeded to microtiter plate wells for experiments described herein. Prior to SRB assays, cell viability was monitored by evaluation of microtiter plate wells. Dead cells detach and float while living cells remain attached to the bottom of the cell well.
(§5) The sulforhodamine B (SRB) cytotoxicity assay (see, Skehan P, et al., New colorimetric cytotoxicity assay for anticancer-drug screening. J. Natl. Cancer Inst. 82:1107-1112 (1990)) was used to determine the cytotoxic effects of BNP1350, SN-38, topotecan, 9-NH2-CPT, and 9-NO2-CPT on cell growth in vitro. Briefly, after the medium was aspirated from individual plate wells, trichloroacetic acid (100 µL of 10.0% solution) was added to each well, and the plates were incubated at 4°C for at least 1 hour. The plates were washed five-times with water using an automated microplate washer (Model EL 404, Bio-Tek Instruments), SRB solution (100 µL of 0.4 grams SRB dissolved in 100 mL 1.0 percent acetic acid) was added, and plates remained at room temperature for 15 minutes. The plates were then washed five-times using acetic acid (1.0%), air dried, and bound dye was solubilized in Tris base (150 µL, 10 mM). Plates were agitated (gently) for 5 minutes and the absorbance values of the SRB dye-protein adduct at a 570 nm wavelength (A570) were determined using an automated microtiter plate reader equipped with an A570 filter (Model EL800, BioTek Instruments). Table VII. Summary of Cytotoxicity Experiments in A2780/WT and DX5 Cells
(In SRB staining, fixed cells bind dye roughly in proportion to their protein.)

For the next data set, the system named is A2780/DX5 cells. The experiment in a line: Sulforhodamine B (SRB) cytotoxicity assay in A2780/DX5 cells. It is filed as cell-based. The following applies: for IC50 Ratio: A2780/DX5 versus A2780/WT. Here is the method: as §1, §2, §3, §4, §5
[2] abbreviates: Homo sapiens, A2780, read-out: A2780/ WT (IC50).
Where [3] appears, read: Homo sapiens, A2780, read-out: A2780/ DX5 (IC50).
Where [4] appears, read: 100 nM Compound Concentrations, 48 hours or longer at room temperature.
Where [5] appears, read: Homo sapiens, SRB assay, A2780/WT cells, read-out: A2780/ WT (IC50).
Setting [6] is: Homo sapiens, SRB assay, A2780/DX5 cells, read-out: A2780/ DX5 (IC50).
Setting [7] is: SRB assay, A2780/WT cells, read-out: A2780/ WT (IC50).
The mark [8] stands for this setting: SRB assay, A2780/DX5 cells, read-out: A2780/ DX5 (IC50).

In the case of `CC[C@@]1(O)C(=O)OCc2c1cc1n(c2=O)Cc2c-1nc1ccccc1c2CC[Si](C)(C)CCl` [Compound 3, 11-(4S)-[2-(chloromethyldimethylsilanyl)-ethyl]-4-ethyl-4-hydroxy-1,12-dihydro-4H-2-oxa-6,12a-diaza-dibenzo[b,h]fluorene-3,13-dione], the IC50 is 0.01 µM in data set [1] (setting [2]) and 0.0145 µM in the data set with A2780/DX5 cells (setting [3]). Moreover, the “IC50 Ratio” value in the data set with A2780/DX5 cells is reported as 1.45. Further, in the data set with human plasma proteins (setting [4]), the “Percent of Free Camptothecin Analogs in Human Plasma” value (from here on “Percent of Free Camptothecin Analogs”) is listed as 1%.

On to `CC[C@@]1(O)C(=O)OCc2c1cc1n(c2=O)Cc2c-1nc1ccccc1c2CC[Si](C)(C)COC(C)=O` [Compound 6, acetic acid-(4S)-{[2-(4-ethyl-4-hydroxy-3,13-dioxo-3,4,12,13-tetrahydro-1H-2-oxa-6,12a-diaza-dibenzo[b,h]fluoren-11-yl)-ethyl]-dimethylsilanyl}-methyl ester], for which the IC50 is 0.0093 µM in data set [1] (setting [5]) and 0.0211 µM in the data set with A2780/DX5 cells (setting [6]). The “IC50 Ratio” value with A2780/DX5 cells is listed as 2.27. The “Percent of Free Camptothecin Analogs” value in the data set with human plasma proteins (human, 100 nM) is listed as 5%.

As to `CC[C@@]1(O)C(=O)OCc2c1cc1n(c2=O)Cc2c-1nc1ccccc1c2CC[Si](C)(C)CCCO` [Compound 10, 4S-4-ethyl-4-hydroxy-11-{2-[(3-hydroxypropyl)-dimethylsilanyl]-ethyl}-1,12-dihydro-4H-2-oxa-6,12a-diaza-dibenzo[b,h]fluorene-3,13-dione], the IC50 in data set [1] (setting [7]) turned out to be 0.0096 µM; in the data set with A2780/DX5 cells (setting [8]), 0.0353 µM. In addition, the “IC50 Ratio” value with A2780/DX5 cells was found to be 3.68. For the same molecule, the “Percent of Free Camptothecin Analogs” value with human plasma proteins (setting [4]) is 3.4%.

As to `CC[C@@]1(O)C(=O)OCc2c1cc1n(c2=O)Cc2c-1nc1ccccc1c2CC[Si](C)(C)O` [Compound 46, (4S)-4-Ethyl-4-hydroxy-11-[2-(hydroxydimethylsilanyl)-ethyl]-1, 12-dihydro-4H-2-oxa-6,12a-diaza-dibenzo[b,h]fluorene-3,13-dione], the IC50 in data set [1] (setting [5]) was 0.01 µM; with A2780/DX5 cells (setting [6]) it was 0.05 µM. Further, the “IC50 Ratio” value in the data set on A2780/DX5 cells stood at 5.0.

As to `CCC1(O)C(=O)OCc2c1cc1n(c2=O)Cc2c-1nc1ccccc1c2CC[Si](C)(C)CCC(=O)O` (centres unmarked) [Compound 47, 3-{[2-(4-Ethyl-4-hydroxy-3,13-dioxo-3 ,4, 12, 13-tetrahydro-1H-2-oxa-6, 12a-diaza-dibenzo[b,h]fluoren-11-yl)-ethyl]-dimethyl-silanyl}-propionic acid], the IC50 in data set [1] (setting [5]) is 0.2 µM; in the data set on A2780/DX5 cells (setting [6]) it was 0.629 µM. In addition, in the data set on A2780/DX5 cells, the “IC50 Ratio” value turned out to be 3.1.

`CCC1(O)C(=O)OCc2c1cc1n(c2=O)Cc2c-1nc1ccccc1c2CC[Si](C)(C)CCC(=O)N(C)C` (centres unmarked) [Compound 48, 3-{[2-(4-Ethyl-4-hydroxy-3,13-dioxo-3,4,12,13-tetrahydro-1H-2-oxa-6,12a-diaza-dibenzo[b,h]fluoren-11-yl)-ethyl]-dimethyl-silanyl}-N,N-dimethyl-propionamide]: the IC50 is 0.0423 µM in data set [1] (setting [5]) and 0.164 µM in the data set with A2780/DX5 cells (setting [6]). Further, the “IC50 Ratio” value with A2780/DX5 cells is recorded as 3.9.

For `CCC1(O)C(=O)OCc2c1cc1n(c2=O)Cc2c-1nc1ccccc1c2CC[Si](C)(C)CCC(=O)NC(CCC(=O)OCc1ccccc1)C(=O)OCc1ccccc1` (centres unmarked) [Compound 49, 2-(3-{[2-(4-Ethyl-4-hydroxy-3, 13-dioxo-3,4, 12, 13-tetrahydro-1H-2-oxa-6,12a-diaza-dibenzo[b,h]fluoren-11-yl)-ethyl]-dimethyl-silanyl}-propionylamino)-pentanedioic acid dibenzyl ester], the IC50 (in data set [1] (setting [5]); with A2780/DX5 cells (setting [6])) was more than 2 µM in each case.

On to `CCC1(O)C(=O)OCc2c1cc1n(c2=O)Cc2c-1nc1ccccc1c2CC[Si](C)(C)CCC(=O)NC(CCC(=O)O)C(=O)O` (centres unmarked) [Compound 50, 2-(3-{[2-(4-Ethyl-4-hydroxy-3, 13-dioxo-3,4, 12, 13-tetrahydro-1H-2-oxa-6, 12a-diaza-dibenzo[b,h]fluoren-11-yl)-ethyl]-dimethyl-silanyl}-propionylamino)-pentanedioic add], for which the results for the IC50 (in data set [1] (setting [7]); with A2780/DX5 cells (setting [8])) were 1.7 µM and more than 2 µM, respectively. In the data set on A2780/DX5 cells, the “IC50 Ratio” value is 1699.3.

For the molecule `CC[C@@]1(O)C(=O)OCc2c1cc1n(c2=O)Cc2c-1nc1ccccc1c2CC[Si](C)(C)CCCOC(=O)c1ccccc1` [Compound 55, Benzoic acid 3-{[2-(4-ethyl-4-hydroxy-3,13-dioxo-3,4, 12, 13-tetrahydro-1H-2-oxa-6,12a-diaza-dibenzo[b,h]fluoren-11-yl)-ethyl]-dimethylsilanyl}-propyl ester], the IC50 in data set [1] (setting [5]) is 0.024 µM; in the data set with A2780/DX5 cells (setting [6]), 0.112 µM. In the data set with A2780/DX5 cells, the “IC50 Ratio” value is reported as 4.6.

Turning to `CC[C@@]1(O)C(=O)OCc2c1cc1n(c2=O)Cc2c-1nc1ccccc1c2CC[Si](C)(C)CCCOC(=O)c1ccco1` [Compound 57, Furan-2-carboxylic acid 3-{[2-(4-ethyl-4-hydroxy-3,13-dioxo-3,4, 12, 13-tetrahydro-1H-2-oxa-6,12a-diaza-dibenzo[b,h]fluoren-11-yl)-ethyl]-dimethyl-silanyl}-propyl ester], the IC50 in data set [1] (setting [5]) amounted to 0.0123 µM; in the data set on A2780/DX5 cells (setting [6]), 0.0292 µM. The “IC50 Ratio” value with A2780/DX5 cells is 2.4.

On to `CC[C@@]1(O)C(=O)OCc2c1cc1n(c2=O)Cc2c-1nc1ccccc1c2CC[Si](C)(C)CCCOC(C)=O` [Compound 60, Acetic acid 3-{[2-(4-ethyl-4-hydroxy-3,13-dioxo-3,4, 12, 13-tetrahydro-1H-2-oxa-6,12a-diaza-dibenzo[b,h]fluoren-11-yl)-ethyl]-dimethyl-silanyl}-propyl ester], for which the IC50 was 0.0106 µM in data set [1] (setting [5]) and 0.0321 µM in the data set with A2780/DX5 cells (setting [6]). In the data set on A2780/DX5 cells, the “IC50 Ratio” value stood at 3.

For `CCC1(O)C(=O)OCc2c1cc1n(c2=O)Cc2c-1nc1ccccc1c2CC[Si](C)(C)CCCOC(=O)C1CCC1` (centres unmarked) [Compound 62, Cyclobutanecarboxylic acid 3-{[2-(4-ethyl-4-hydroxy-3, 13-dioxo-3,4, 12, 13-tetrahvdro-1H-2-oxa-6,12a-diaza-dibenzo[b,h]fluoren-11-yl)-ethyl]-dimethyl-silanyl}-propyl ester], the figures for the IC50 (in data set [1] (setting [7]); in the data set on A2780/DX5 cells (setting [8])) were 0.0104 µM and 0.0392 µM, respectively. Moreover, the “IC50 Ratio” value in the data set on A2780/DX5 cells is 3.77.

As to `CCC1(O)C(=O)OCc2c1cc1n(c2=O)Cc2c-1nc1ccccc1c2CC[Si](C)(C)CCCOC(=O)C1=CCNO1` (centres unmarked) [Compound 64, 2,3-Dihydro-isoxazole-5-carboxylic acid 3-{[2-(4-ethyl-4-hydroxy-3,13-dioxo-3,4,12,13-tetrahydro-1H-2-oxa-6,12a-diaza-dibenzo[b,h]fluoren-11-yl)-ethyl]-dimethyl-silanyl}-propyl ester], the IC50 in data set [1] (setting [2]) is 0.014 µM; in the data set on A2780/DX5 cells (setting [3]), 0.0598 µM. The “IC50 Ratio” value in the data set with A2780/DX5 cells is 4.27.

Regarding `CCc1c2c(nc3ccccc13)-c1cc3c(c(=O)n1C2)COC(=O)[C@]3(O)CC` [SN-22], the “Percent of Free Camptothecin Analogs” value in the data set with human plasma proteins (setting [4]) is listed as 1%.

As to `CCc1c2c(nc3ccc(O)cc13)-c1cc3c(c(=O)n1C2)COC(=O)[C@]3(O)CC` [SN-38, 10-hydroxy-7-ethyl camptothecin], the “Percent of Free Camptothecin Analogs” value in the data set on human plasma proteins (setting [4]) is 15%.

Regarding `CC[C@@]1(O)C(=O)OCc2c1cc1n(c2=O)Cc2cc3c(CN(C)C)c(O)ccc3nc2-1` [Topotecan, 9-dimethylaminomethyl-10-hydroxy camptothecin], the “Percent of Free Camptothecin Analogs” value in the data set on human plasma proteins (setting [4]) worked out at 100%.
